Measured values reported in patent US20150307519A1, “SMALL MOLECULES FOR RESTORING FUNCTION TO P53 CANCER MUTANTS” (THE REGENTS OF THE UNIVERSITY OF CALIFORNIA, priority 2014, published 2015).

Tests used:
[1] = test system: Saos-2 cells expressing p53^G245S; assay: Cell count / viability of Saos-2 cells with doxycyclin-inducible p53 G245S; assay type: cell-based; conditions: FIGS. 5A-5C; for p53 G245S-dependent cancer cell cytotoxicity: 27 hours
From the text: ACS chemical biology, doi:10.1021/cb3005929 (2013).

[2] = target: T1, G245S DBD (Homo sapiens, UniProt P04637, G245S); assay: DSF thermal stabilization of G245S DBD; assay type: binding; conditions: DSF assay
T1 construct: wild-type p53 protein DBD protein (residues 94-312 of the full length)
Procedure: (§1) To determine whether this stabilization was specific for copper, NSC319725 was also tested after addition of Fe(II)Cl2 and ZnCl2. […] NSC635448, […] were also tested for stabilization of G245S DBD and WT DBD in the DSF assay, yielding analogous results.
(§2) An equivalent volume of DMSO was used as a control. […] Sypro Orange stain (Bio-Rad, Hercules, Calif.) at 5,000× stock concentration was diluted to 5× concentration in 20 mM HEPES at pH 7.4 and added to each well of a 96-well plate. All SLS compounds were independently measured for fluorescence background to eliminate false positive results. […] All DSF assays were performed with a Touch RT-PCR system CFX96 (Bio-Rad) with the starting temperature of 4° C. by increasing the temperature of the plate 1.0° C. per min to 94° C. Fluorescence measurements were taken once every minute during all experiments. Tm values for each well, mean Tm values, and 95% confidence intervals were calculated with the program Prism 5 (GraphPad Software, La Jolla, Calif.) by fitting the raw fluorescence data to a Boltzmann sigmoidal curve.

[3] = target: T2, WT DBD (wild-type p53 DBD protein) (Homo sapiens, UniProt P04637); assay: DSF thermal stabilization of WT DBD; assay type: binding; conditions: DSF assay
T2 construct: wild-type p53 protein DBD protein (residues 94-312 of the full length); made in house; host or cells: Escherichia coli Rosetta 2 (DE3), vector pSE420
Procedure: as §1, §2

SMILES	reactivation of p53^G245S in cells [1]	effect on Tm of G245S DBD (qualitative) [2]	p53 G245S-dependent cancer cell cytotoxicity [1]	effect on Tm of WT DBD (qualitative) [3]
Cn1ncc2c(Nc3ccc(Br)cc3)nc(Nc3ccc(Br)cc3)nc21 [NSC11667]	marked efficacy			
C/C(=N\NC(=S)N(C)C)c1ccccn1 [NSC319725, reference compound]		no effect or a slight destabilization	marked	no effect or a slight destabilization
NS(=O)(=O)c1nc2nc[nH]c(=O)c2[nH]1 [NSC635448]	marked efficacy	increased the Tm	marked	increased the Tm
